{"source": "patent US4619932A", "about": "“Novel carbostyril derivatives, process for producing thereof and pharmaceutical composition containing the same” (Otsuka Pharmaceutical Co., Ltd., priority 1980, dated 1986)", "key": {"[1]": {"target": "retraction of ileum caused by histamine (Cavia porcellus, UniProt P31389)", "sequence (P31389 whole entry)": "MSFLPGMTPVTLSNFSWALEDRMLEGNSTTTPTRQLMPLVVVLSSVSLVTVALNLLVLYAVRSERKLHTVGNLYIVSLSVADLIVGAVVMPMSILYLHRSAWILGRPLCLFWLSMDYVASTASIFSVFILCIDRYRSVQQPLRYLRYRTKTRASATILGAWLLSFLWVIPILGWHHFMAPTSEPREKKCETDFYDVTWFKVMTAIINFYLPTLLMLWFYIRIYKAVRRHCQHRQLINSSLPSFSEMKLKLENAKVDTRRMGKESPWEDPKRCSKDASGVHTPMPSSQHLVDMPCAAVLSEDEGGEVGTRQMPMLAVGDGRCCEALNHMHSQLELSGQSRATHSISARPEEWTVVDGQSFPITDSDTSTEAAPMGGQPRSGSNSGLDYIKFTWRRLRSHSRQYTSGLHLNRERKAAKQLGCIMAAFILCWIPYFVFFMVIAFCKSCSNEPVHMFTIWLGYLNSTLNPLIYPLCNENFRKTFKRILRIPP", "assay": "Antihistaminic activity test in vitro, enucleated ileum of guinea pig", "design": "species or system guinea pig (male)", "text": "(E) Antihistaminic activity test\nAs to the test method for determining antihistaminic activity of a compound in vitro, a method of using an enucleated ileum of a guinea pig is generally accepted. Antihistaminic activity of the present compounds was conduted according to said method as follows:\nA male guinea pig having 300 to 500 g body weight was killed by blood letting. An ileum having length of 15 cm being enucleated from the ileocecal region was dipped into Tyrode's solution (which was prepared from 8.0 g of NaCl, 0.2 g of KCl, 0.2 g of CaCl2, 1.0 g of glucose, 1.0 g of NaHCO3, 0.065 g of NaHPO4.2H2 O and 0.2135 g of MgCl2.6H2 O make 1000 ml in total volume by adding water). Then the tissue of ileum was cut to a length of 2.5 to 3.0 cm and suspended in an organ bath filled with 30 ml of Tyrode's solution. The organ bath was kept a temperature of 36° C. and blowing a mixed gas consisting of 5% of CO2 and 95% of O2 into the bath. 10 Minutes after the blowing, 10^-6M of histamine was added to the bath to examine the sensitivity of the tissue and a reaction curve (control) with respect to the dosage of histamine was obtained. After the dosage of histamine-reaction curve (control) become constant 10^-6 g/ml of a compound to be tested was added to the bath and further histamine was added 5 minutes later to obtain dosage-reaction curve. Retraction of the isotonic was recorded on a pen-recorder through an isotonic transducer (TD-112S manufactured by Nihon Koden). Antihistaminc activity of the test compound was determined as pA2 value by \"Van Rossam\" method (J. M. Van Rossam: Arch. Inst. Pharmacodyn. Ther., 143, 299 (1963)) in terms of that the maximum retraction of ileum caused by histamine shown in the control curve is 100%."}, "[2]": {"system": "male rats", "conditions": "rat, in vivo, po", "experimental": "Each of the following compound of the general formula in the present invention was administered orally to male rats to determine the acute toxicity (LD50 mg/kg)."}, "[3]": {"system": "epinephrine", "assay": "Activity for antagonizing epinephrine in mouse", "assay_type": "in vivo, mouse (male, ddy strain)", "conditions": "oral, 1 hour before epinephrine 40 mg/kg i.p., survival at 24 hours, read-out: ED50 value, dose allowing half the animals to survive", "experimental": "(C) Activity for antagonizing epinephrine in mouse\nIndividual male mice of ddy strain having 17 to 20 g of body weight were used. The mice were abstained from eating for 24 hours. One test group consist of 10 mice. A compound to be tested was administered orally. One hour after the administration, 40 mg/kg of epinephrine was intraperitonerally administered. […] All of 10 mice administered physiological saline solution as the reference group were dead within a few minutes after the administration of epinephrine. (Cf. Loew, E. R. and Micetich, A., J. Pharmacol. Exp. Ther., 93, 434-443 (1948))."}, "[4]": {"system": "Halothane anesthesia", "assay": "Halothane anesthesia increasing activity", "assay_type": "in vivo, mouse (male, ddy-strain)", "conditions": "16 mg/kg oral, 1 hour before 4% Halothane for 3 minutes; righting reflex", "experimental": "Male mice of ddy-strain a having about 20 g body weight were used. One test group consists of 10 mice. An aqueous Gummi Arabicum suspension of test compound (80 mg of a compound to be tested and 1 g of Gummi Arabicum/100 ml of physiological NaCl solution) was administered orally to each mouse at the dosage of 16 mg of test compound/kg body. One hour after the administration, each mouse was placed in gas respiration chamber (13×13×24 cm) and oxygen gas containing 4% of Halothane (2-brome-2-chloro-1,1,1-trifluoroethane) was flown into the chamber at the velocity of 2/min for 3 minutes. A mouse anaesthetized was taken out from the chamber and the time between the introduction of anesthesia to waking was measured by righting reflex as the index. To mice of control group, 1% Gummi Arabicum aqueous physiological solution was orally administered at the dosage of 0.1 ml/kg body."}, "[5]": {"system": "jumping behavior induced by Methamphetamine and L-DOPA", "assay": "Activity for inhibiting jumping behavior in mouse induced by Methamphetamine and L-DOPA", "assay_type": "in vivo, mouse (male, ddy-strain)", "conditions": "oral, Methamphetamine 4 mg/kg i.p. and L-DOPA 400 mg/kg i.p., positive = 10 or fewer jumps, read-out: ED50 value, inhibition of jumping behavior", "experimental": "(B) Activity for inhibiting jumping behavior in mouse induced by Methamphetamine and L-DOPA\nIndividual male mice of ddy-strain having a body weight of 17 to 25 g were used. The mice were not fed for 24 hours. One test group consisted of 6 mice. A compound to be tested was administered orally. 40Minutes after the administration 4 mg/kg of Methamphetamine d-N-α-dimethylphenthylamine was intraperitonerally administered, further 15 minutes after the administration of Methamphetamine, 400 mg/kg of L-DOPA was intraperitonerally administered. 60 Minutes after the administration of L-DOPA, (3-(3,4-dihydroxyphenyl)alanine) the mouse was placed in a glass beaker of 2 liters capacity, and the number of jumping of the mouse was recorded. The activity for inhibiting jumping behavior of the test compound was determined as positive in case of number of jumping performed by the administered mouse counted 10 or less. While, the activity for inhibiting jumping behabior of the test compound was determined as negative in case the number of jumping performed by the administered mouse recorded over 10. The effective dosage (ED50 value: mg/kg) of the test compound which gives 3 mice were positive over 6 mice of one test group was calculated. The number of jumping performed by the mouse being administered with physiological saline solution as the reference was 150 to 200 per hour. (Cf. H. Lal, F. C. Colpaert, P. Laduron: European J. Pharmacol., 30, 113-116 (1975))."}, "[6]": {"system": "palpebral ptosis", "assay": "Palpebral ptosis test in mouse", "assay_type": "in vivo, mouse (male, ddy-strain)", "conditions": "64 mg/kg oral, 1 hour; score 0 (wide open eyes) to 8 (eyes completely closed); mean of 10 mice", "experimental": "(D) Activity of palpebral ptosis test in mouse\nIndividual male mice of ddy-strain having 18 to 20 g of body weight were used. The mice were abstained from eating for 24 hours. One test group consists of 10 mice. […] One hour after the administration, the state of palpebral ptosis of the mouse were observed and evaluated on the basis of the following score system. The mean value was calculated from the scores of 10 mice.\nScore Degree of palpebral ptosis\n8 Eyes completely closed."}, "[7]": {"conditions": "10^-6 g/ml test compound, histamine, Tyrode's solution, 36° C., Van Rossam method, read-out: pA2 (converted)"}}, "note": "Where a name gives a salt, the structure may show the parent alone. Read-outs that look alike come from different tables or passages of the source.", "data": [{"smiles": "CN1C(=O)CCc2cc(C(=O)CCN3CCN(c4ccccc4)CC3)ccc21", "note": "[Compound 20, 1-Methyl-6-[1-oxo-3-(4-phenyl-1-piperazinyl)propyl]-3,4-dihydrocarbostyril.monooxalate]", "values": [{"measurement": "Kb", "setting": "[1]; [7]", "result": 26.3, "unit": "nM"}, {"measurement": "Acute toxicity (LD50)", "setting": "[2]", "result": 500, "unit": "mg/kg"}]}, {"smiles": "Cc1cccc(N2CCN(CC=Cc3ccc4c(c3)CCC(=O)N4Cc3ccccc3)CC2)c1", "note": "[Compound 21, 1-Benzyl-6-{3-[4-(3-methylphenyl)-1-piperazinyl]-1-propenyl}-3,4-dihydrocarbostyril monooxalate]", "values": [{"measurement": "Kb", "setting": "[1]; [7]", "result": 49, "unit": "nM"}]}, {"smiles": "O=C1CCc2cc(C(=O)CCN3CCC(Cc4ccccc4)CC3)ccc2N1", "note": "[Compound 24]", "values": [{"measurement": "Kb", "setting": "[1]; [7]", "result": 58.9, "unit": "nM"}, {"measurement": "Acute toxicity (LD50)", "setting": "[2]", "result": 500, "unit": "mg/kg"}]}, {"smiles": "O=C1CCc2cc(C(=O)CCCN3CCN(c4ccccc4Cl)CC3)ccc2N1", "note": "[Compound 3, 6-{1-Oxo-4-[4-(2-chlorophenyl)-1-piperazinyl]butyl}-3,4-dihydrocarbostyril.monohydrochloride.monohydrate]", "values": [{"measurement": "ED50", "setting": "[3]", "result": 6.12, "unit": "mg/kg"}, {"measurement": "Time (minutes) between introduction of anesthesia to waking", "setting": "[4]", "result": 8.0, "unit": "min"}, {"measurement": "Acute toxicity (LD50)", "setting": "[2]", "result": 500, "unit": "mg/kg"}, {"measurement": "ED50", "setting": "[5]", "result": 1.05, "unit": "mg/kg"}, {"measurement": "Score obtained (Mean value), degree of palpebral ptosis", "setting": "[6]", "result": 2.0}]}, {"smiles": "O=C1CCc2c(CCCN3CCN(c4ccccc4)CC3)cccc2N1", "note": "[Compound 22, 5-[3-(4-Phenyl-1-piperazinyl)propyl]-3,4-dihydrocarbostyril]", "values": [{"measurement": "Kb", "setting": "[1]; [7]", "result": 97.7, "unit": "nM"}, {"measurement": "Acute toxicity (LD50)", "setting": "[2]", "result": 500, "unit": "mg/kg"}]}, {"smiles": "Cc1ccc(C2=CCN(CC=Cc3ccc4c(c3)CCC(=O)N4)CC2)cc1", "note": "[Compound 23, 6-{3-[4-(4-Methylphenyl)-1,2,5,6-tetrahydropyridyl]-1-propenyl}-3,4-dihydrocarbostyril]", "values": [{"measurement": "Kb", "setting": "[1]", "result": 15.5, "unit": "nM"}, {"measurement": "Acute toxicity (LD50)", "setting": "[2]", "result": 500, "unit": "mg/kg"}]}]}
